The numbers were not newly measured in article PMC8004929, “Whole-Body Pharmacokinetics and Physiologically Based Pharmacokinetic Model for Monomethyl Auristatin E (MMAE)” (Journal of Clinical Medicine, 2021), which cites them from elsewhere.

For data set [1] the following is noted: cited from earlier work. From the text: The PBPK model included 16 tissues and a tumor compartment, and all of them were connected via blood flow and arranged anatomically. The tissue compartments included blood, lung, heart, kidney, muscle, skin, liver, brain, adipose, thymus, bone, small intestine, large intestine, spleen, pancreas, and other (i.e., carcass). All the other tissues, except those mentioned, were lumped into the ‘other’ compartment. The arterial blood to each organ was delivered by the efferent blood supplied from the lung, which perfused to each organ and t ... || It is reported that the elimination (metabolism and excretion) of MMAE is mainly through CYP3A4-mediated metabolism, biliary/fecal excretion, or urinary excretion. About 80% of MMAE excretes via feces, and only 6% excretes via urine. Therefore, we assumed that MMAE was eliminated only via metabolism and biliary/fecal excretion from the liver. […] For the derivation of CLint based on in vitro data, the CLint, vitro were estimated using human hepatocyte (3 µL/min/10^6 cells) and human ...

The subject of a further data set is tubulin. The settings on record: cited from earlier work. From the text: Table 1 A glossary of literature-derived and estimated parameters used for the MMAE PBPK model. | column: Value || Physiological parameters for mice were obtained from our previously published PBPK model. Radius of the tumor blood capillary ( Rcap ), average distance between two capillaries ( Rkrough ), tumor void volume for MMAE ( ε ), P, D, and efflux rate of MMAE from the cells ( kout ) were obtained from the literature.

The conditions of data set [2]: following free MMAE administration; cited from earlier work. From the text: Our results regarding the blood cell distribution of MMAE were not consistent with the literature. The MMAE blood-to-plasma ratio is reported to be 2 [4] and 1.53–8.65 [8] in different studies, following free MMAE administration. Whereas, a lower blood-to-plasma ratio has been observed when MMAE-conjugated ADCs were administrated.

Square brackets hold non-standard residues; d marks the D form. Peptide text beside a SMILES is read from it. * marks the point of attachment. Dolaproine = CO[C@@H]([C@@H]1CCCN1)[C@@H](C)C(=O)O; Dil = CC[C@H](C)[C@H](NC)[C@@H](CC(=O)O)OC; X1 = C[C@@H](N*)[C@@H](O)c1ccccc1; NMeV = CN[C@H](C(=O)O)C(C)C A value given as a limit tells only on which side of the number the result lay.

One may read the Kd as the free concentration of one partner at which half of the binding sites on the other are occupied at equilibrium, for simple one-to-one binding. As for `CC[C@H](C)[C@@H]([C@@H](CC(=O)N1CCC[C@H]1[C@H](OC)[C@@H](C)C(=O)N[C@H](C)[C@@H](O)c1ccccc1)OC)N(C)C(=O)[C@@H](NC(=O)[C@@H](NC)C(C)C)C(C)C` [MMAE, Monomethyl auristatin E] (H-[NMeV]V[Dil][Dolaproine]-X1), in data set [1], the excretion via feces result was “About 80%”, the excretion via urine is listed as 6% and the renal excretion is less than 10%. Besides, in the data set on tubulin (assumed), the “koff, first-order dissociation rate constant between MMAE–tubulin complex” value was 0.000151 s⁻¹. For the same compound, the Kd at tubulin (read-out: equilibrium dissociation rate (KD) of MMAE for free tubulin) was 291 nM. For the same compound, the blood-to-plasma ratio in data set [2] is reported as 2.
